In brackets after ≈: the same amount, converted by molar mass. Values belong to the compound of their own block, whether it stands above or below them.
How the values were obtained:
[1] = tested on: A375, A431, A549, MRC-5 cells; experiment: Photocytotoxicity assay, summary across cell lines; type: cell-based
[2] = Solubility in demineralized water; type: physicochemical; conditions: read-out: maximum solubility
tubulin = conditions: polymerization enhancer control
Source text: Raw fluorescence was normalized by initial fluorescence for each sample. Samples consists of the caged drug (not irradiated), the caged drug irradiated with green light, and the caged drug irradiated with blue light.
In this assay, increased fluorescence indicates tubulin polymerization.

SMILES: F[P-](F)(F)(F)(F)F.F[P-](F)(F)(F)(F)F.O.[Ru+2].c1ccc(-c2cccc(-c3ccccn3)n2)nc1.c1ccc(-c2ccccn2)nc1 [[3](PF6)2]
activity across all tested cell lines ([1]; all tested cell lines): no activity

SMILES: [NH2][Pt]([NH2])([Cl])[Cl] [CDDP, cisplatin]
EC50 ([1]; range across all tested cell lines): 0.85 to 3.06 µM

solubility [2]: 10 µM (≈ 4.04 µg/mL)
SMILES: CSCCCc1nc(=O)c2c(-c3ccccc3)c(C(=O)c3ccccc3)[nH]c2[nH]1 [compound 1]

SMILES: CC(=O)O[C@H]1C(=O)[C@@]2(C)[C@H]([C@H](OC(=O)c3ccccc3)[C@]3(O)C[C@H](OC(=O)[C@H](O)[C@@H](NC(=O)c4ccccc4)c4ccccc4)C(C)=C1C3(C)C)[C@]1(OC(C)=O)CO[C@@H]1C[C@@H]2O [paclitaxel, reference compound]
tubulin polymerization (tubulin): induces rapid polymerization of tubulin

— patent US10781226B2, “Photoactivatable cancer prodrug” (Texas State University, priority 2017, dated 2020)
